In US20120122716A1, “CELL LINE DERIVED FROM THE EPITHELIAL LINING OF THE HUMAN ENDOLYMPHATIC SAC IN THE INNER EAR” (priority 2010, published 2012):

Key:
ES cells = test: Water permeability of ES cells (fluorescence-quenching assay); type: cell-based; conditions: immortalized human ES epithelial cells
Method: For water permeability measurement, an ES cell line is plated in 96-well clear bottom of black-walled microplates (Costar) at a density of 20000 cells per well in F-12 Ham's medium supplemented with 10% FBS and 0.5 mg/mL G418. After incubation at 37° C. in an atmosphere containing 5% CO2 with 90% humidity for 18 h, the cells in 96-well plates are washed twice in PBS buffer (200 μL/wash), leaving 100 μL PBS after the last wash. Measurement is performed on a FLUOstar Optima plate reader (BMG Technology) equipped with syringe pumps and excitation and emission filters. Cells in each well of the plate are assayed individually for osmotically driven (e.g., aquaporin-mediated), water influx across the plasma membrane that dilutes the cytoplasmic Cl^− by recording fluorescence increase continuously (0.2 s per point) for 2 s (baseline) and then for 21 s (water transport into the cells) after rapid injection (<1 s) of 100 μL distilled water. Water permeability is expressed as half time (t1/2) from water injection to the point when the cytoplasmic fluorescence reaches the maximum. A smaller t1/2 represents a higher water permeability.
The inner ear can function properly only if the chemical equilibrium and volume of inner ear fluids are maintained. The disruption of inner ear homeostasis results in many inner ear disorders such as Meniere's disease. […]

AQP2 = test: RT-PCR analysis of AQP2 expression in ES cells; type: cell-based; conditions: immortalized human ES epithelial cells
Description: The inner ear can function properly only if the chemical equilibrium and volume of inner ear fluids are maintained. The disruption of inner ear homeostasis results in many inner ear disorders such as Meniere's disease. The endolymphatic sac (ES) is believed to be involved in homeostasis of endolymph such as ion and fluid regulation. Aquaporins (AQPs) function like a molecular water valve, allowing water to move along a specific direction. AQP1, 2, 3, 4, and 6 are all found in the ES and may have an important role in endolymph fluid homeostasis. […] Taken together, our findings indicate that ES epithelial cells are invovled in homeostasis of endolymph through regulation of AQP2 and AQP3. We believe that our ES cell line will provide an in vitro model enabling us to better understand the molecular pathogeneis of Meniere's disease.

[1] = tested on: mucin core proteins and hyaluronic acid synthases; test: qRT-PCR analysis of mucin core proteins and hyaluronic acid synthases in HESC-1 cells; type: cell-based, human
Description: We identified hyaluronic acid among the osmotically active substances derived from our ES cell line. Three isoforms of hyaluronic acid synthases (HASs) are identified in humans. For example, transcriptional regulation of each HAS can be determined using real-time quantitative RT-PCR analysis after extraction of total RNAs from the ES cell line. Protein levels of each HAS can be measured using immunobloting after extraction of total proteins from the ES cell line. To determine the factors regulating each HAS, the cells can be cultured using a serum-free medium with deficiency of a specific factor such as retinoic acid, hydrocortisone and triiodothronine.
(§1) Regulatory mechanisms involved in secretion and biological functions of these molecules can be determined. The HESC-1 cells provides a basis for an in vitro model for the studies of secretory function of the ES.

HESC-1 cells = test: Secretion of viscous substance by HESC-1 cells; type: cell-based, human
Description: For example, viscosity of the substance derived from the cells can be measured using an Ubbelohde viscometer (VWR) after collection of the supernatant. Osmolality of the substance can be measured using a freezing point osmometer (Precision Systems, Natick, MA). To determine the factors influencing secretion of osmotically active and viscous substances, the cells can be cultured using a serum-free medium with deficiency of a specific factor such as retinoic acid, hydrocortisone and triiodothronine.
as §1

Compound	water permeability of ES cells upon exposure (ES cells)	AQP2 expression (RT-PCR) (AQP2)	expression of mucin core proteins and hyaluronic acid synthases (qRT-PCR) [1]	secretion of viscous substance (HESC-1 cells)
NC(=O)CC[C@@H]1NC(=O)[C@H](Cc2ccccc2)NC(=O)[C@H](Cc2ccc(O)cc2)NC(=O)[C@@H](N)CSSC[C@@H](C(=O)N2CCC[C@H]2C(=O)N[C@@H](CCCN=C(N)N)C(=O)NCC(N)=O)NC(=O)[C@H](CC(N)=O)NC1=O [vasopressin]	affected	up-regulation	–	–
EGF: human epidermal growth factor (EGF) (NSDSECPLSHDGYCLHDGVCMYIEALDKYACNCVVGYIGERCQYRDLKWWELR; UniProt P01133 971-1023, looked up)	–	–	up-regulate	secrete viscous substance
